According to PubChem BioAssay AID256 (DTP/NCI, 2004):
Inconclusive results and toxic doses are left out.

Tested on: CD2F1 mice, L1210 leukemia ip, survival T/C
Assay: NCI In Vivo Anticancer Drug Screen. Data for tumor model L1210 Leukemia (intraperitoneal) in CD2F1 (CDF1) mice
Conditions: endpoint: mean survival time, higher = longer survival
Method in brief: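 Compound-dosed mice with transplantable tumor versus matched vehicle controls; endpoint ratio T/C reported.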

[1] = dose: 100.0 mg/kg/injection, schedule: Q01DX009 (ip), vehicle: saline with Tween-80
[2] = dose: 200.0 mg/kg/injection, schedule: Q01DX009 (ip), vehicle: saline with Tween-80
[3] = dose: 400.0 mg/kg/injection, schedule: Q01DX009 (ip), vehicle: saline with Tween-80
[4] = dose: 100.0 mg/kg/injection, schedule: Q01DX001 (ip), vehicle: saline with Tween-80
[5] = dose: 200.0 mg/kg/injection, schedule: Q01DX001 (ip), vehicle: saline with Tween-80

`CC1CN(Cc2ccccc2O)CC(C)N1` (configuration not stated) was tested, and the T/C (dose: 25.0 mg/kg/injection, schedule: Q01DX005 (ip), vehicle: water) was 96 % of control, the T/C (dose: 50.0 mg/kg/injection, schedule: Q01DX005 (ip), vehicle: water) was 94 % of control and the T/C (dose: 100.0 mg/kg/injection, schedule: Q01DX005 (ip), vehicle: water) was 94 % of control.

In the case of `CCCCCCCCCCCC(=O)c1ccccc1`, the T/C [1] is reported as 102 % of control, the T/C (dose: 100.0 mg/kg/injection, schedule: Q04DX003 (ip), vehicle: other) is reported as 95 % of control and the T/C [2] is reported as 102 % of control. For the same molecule, the T/C (dose: 200.0 mg/kg/injection, schedule: Q04DX003 (ip), vehicle: other) was 97 % of control, the T/C [3] was 98 % of control and the T/C (dose: 400.0 mg/kg/injection, schedule: Q04DX003 (ip), vehicle: other) was 92 % of control.

In the case of `CN(C)c1ccc(N=Nc2cccnc2)cc1`, the T/C [4] is reported as 97 % of control and the T/C [5] is reported as 97 % of control.

For `N#C/C(=C\c1c[nH]c2ccccc12)C(N)=O`, the T/C (dose: 100.0 mg/kg/injection, schedule: Q01DX009 (ip), vehicle: other) was 93 % of control, the T/C [1] was 97 % of control and the T/C [2] was 92 % of control. For the same molecule, the T/C (dose: 400.0 mg/kg/injection, schedule: Q01DX009 (ip), vehicle: other) was 88 % of control and the T/C [3] was 97 % of control.

With `CCCCCCCCCC/C(C)=N/Nc1ccc([N+](=O)[O-])cc1[N+](=O)[O-]` the T/C [4] was 94 % of control, the T/C [5] was 89 % of control and the T/C (dose: 400.0 mg/kg/injection, schedule: Q01DX001 (ip), vehicle: saline with Tween-80) was 93 % of control.

For `CC(=O)OCC1OC(n2cnc3c(Cl)ncnc32)C(OC(C)=O)C1OC(C)=O` (configuration not stated), the T/C (dose: 12.5 mg/kg/injection, schedule: Q01DX005 (ip), vehicle: other) was 94 % of control, the T/C (dose: 25.0 mg/kg/injection, schedule: Q01DX005 (ip), vehicle: other) was 88 % of control and the T/C (dose: 50.0 mg/kg/injection, schedule: Q01DX005 (ip), vehicle: other) was 98 % of control. For the same molecule, the T/C (dose: 100.0 mg/kg/injection, schedule: Q01DX005 (ip), vehicle: other) was 96 % of control, the T/C (dose: 200.0 mg/kg/injection, schedule: Q01DX005 (ip), vehicle: other) was 100 % of control and the T/C (dose: 400.0 mg/kg/injection, schedule: Q01DX005 (ip), vehicle: other) was 102 % of control.

In the case of `C(=N\Nc1nc2ccccc2s1)/c1cccnc1`, the T/C (dose: 100.0 mg/kg/injection, schedule: Q04DX003 (ip), vehicle: Klucel (hydroxypropylcellulose) (HPC)) is reported as 97 % of control, the T/C (dose: 200.0 mg/kg/injection, schedule: Q04DX003 (ip), vehicle: Klucel (hydroxypropylcellulose) (HPC)) is reported as 94 % of control and the T/C (dose: 400.0 mg/kg/injection, schedule: Q04DX003 (ip), vehicle: Klucel (hydroxypropylcellulose) (HPC)) is reported as 100 % of control.

In the case of `CCOC(=O)c1c(O)c2c([nH]c1=O)CCc1ccccc1-2`, the T/C (dose: 12.5 mg/kg/injection, schedule: Q01DX009 (ip), vehicle: saline with Tween-80) is reported as 98 % of control, the T/C (dose: 25.0 mg/kg/injection, schedule: Q01DX001 (ip), vehicle: saline with Tween-80) is reported as 98 % of control and the T/C (dose: 25.0 mg/kg/injection, schedule: Q01DX009 (ip), vehicle: saline with Tween-80) is reported as 95 % of control. The T/C (dose: 50.0 mg/kg/injection, schedule: Q01DX001 (ip), vehicle: saline with Tween-80) was 93 % of control, the T/C (dose: 50.0 mg/kg/injection, schedule: Q01DX009 (ip), vehicle: saline with Tween-80) was 95 % of control and the T/C [4] was 103 % of control.

`S=C(Nc1ccccc1)NC1CCCCC1` was tested, and the T/C (dose: 100.0 mg/kg/injection, schedule: Q04DX003 (ip), vehicle: saline with Tween-80) was 100 % of control, the T/C (dose: 200.0 mg/kg/injection, schedule: Q04DX003 (ip), vehicle: saline with Tween-80) was 102 % of control and the T/C (dose: 400.0 mg/kg/injection, schedule: Q04DX003 (ip), vehicle: saline with Tween-80) was 97 % of control.

For `O/N=C/c1cc[n+](CCC[n+]2ccc(/C=N/O)cc2)cc1`, the T/C (dose: 5.0 mg/kg/injection, schedule: Q01DX009 (ip), vehicle: saline sonified) was 98 % of control, the T/C (dose: 5.0 mg/kg/injection, schedule: Q04DX003 (ip), vehicle: saline) was 103 % of control and the T/C (dose: 10.0 mg/kg/injection, schedule: Q01DX009 (ip), vehicle: saline sonified) was 98 % of control. The T/C (dose: 10.0 mg/kg/injection, schedule: Q04DX003 (ip), vehicle: saline) was 105 % of control, the T/C (dose: 20.0 mg/kg/injection, schedule: Q01DX009 (ip), vehicle: saline sonified) was 95 % of control and the T/C (dose: 20.0 mg/kg/injection, schedule: Q04DX003 (ip), vehicle: saline) was 101 % of control.

In the case of `CCc1c(CNc2ccc(C(=O)NC(CC(=O)O)C(=O)O)cc2)ccc2nc(N)nc(N)c12` (configuration not stated), the T/C (dose: 0.25 mg/kg/injection, schedule: Q01DX001 (ip), vehicle: saline) is reported as 105 % of control, the T/C (dose: 0.5 mg/kg/injection, schedule: Q01DX001 (ip), vehicle: saline) is reported as 114 % of control and the T/C (dose: 1.0 mg/kg/injection, schedule: Q01DX001 (ip), vehicle: saline) is reported as 119 % of control. For the same molecule, the T/C (dose: 4.0 mg/kg/injection, schedule: Q01DX001 (ip), vehicle: saline) was 163 % of control.
